Data reported in article PMC11768629, “Potential Interaction of Pinocembrin with Drug Transporters and Hepatic Drug-Metabolizing Enzymes” (Pharmaceuticals, 2025).
Values joined by “and” are separate entries in the source; they are usually repeats but may differ in a detail not shown here. Identical values can stand only once. Like-named read-outs stand apart in the source and are kept apart here.

How the values were obtained:
hMATE1 = target: T1, hMATE1 (Homo sapiens, UniProt Q96FL8); experiment: Cis-inhibition assay, 3H-MPP+ uptake in hMATE1-CHO-K1 cells; assay type: cell-based; conditions: pinocembrin, pH 8.5
T1 construct: host or cells: CHO-K1
Method: (§1) Next, the effects of pinocembrin on the transport function of renal drug transporters, including hOAT1, hOAT3, hOCT1, hOCT2, hMATE1, and hMATE2, were determined.
(§2) A cell monolayer comprising hOAT1-MDCK, hOAT3-MDCK, hOCT1-CHO-K1, hOCT2-CHO-K1, hMATE1-CHO-K1, hMATE2-CHO-K1, and mock cells were utilized for the uptake experiments. The cells were washed three times with a buffer containing (in mM) 140 NaCl, 5 KCl, 0.4 MgSO4, 0.5 MgCl2, 1 CaCl2, 0.3 Na2HPO4, 0.4 KH2PO4, 6 D-glucose, and 4 NaHCO3 at pH 7.4 and incubated at 37 °C for 15 min. After incubation, the hOAT1-MDCK and hOAT3-MDCK cells were incubated for 10 min with ^3H-PAH and ^3H-estrone sulfate, a substrate of hOAT1 and hOAT3, respectively. The hOCT1-CHO-K1 and hOCT2-CHO-K1 cells were incubated with ^3H-MPP^+, a substrate of OCT1 and OCT2, for five minutes. The functions of MATE1 and MATE2 were determined by incubating the hMATE1-CHO-K1 and hMATE2-CHO-K1 cells with a buffer containing ^3H-MPP^+, a substrate of MATE1 and MATE2, at pH 8.5 for five minutes. The cells were washed three times with an ice-cold buffer to stop the transport function. The cells were lyzed with 0.4 N NaOH for at least four hours. The samples were collected and transferred to vials containing a liquid scintillation cocktail to measure radioactivity by a β-counter (Packard BioScience, Wellesley, MA, USA). […]

[1] = set-up: method as in PMID 25814318; conditions: cited from earlier work
BCRP = test system: BCRP; set-up: method as in PMID 22263589, PMID 23497885; conditions: cited from earlier work
CYP3A4 = conditions: cited from earlier work
OATP2B1 = test system: OATP2B1; set-up: method as in PMID 28745105; conditions: transfected renal cells; read-out: IC50 on OATP2B1-mediated rosuvastatin uptake; cited from earlier work
hMATE2 = target: T2, hMATE2 (Homo sapiens, UniProt Q86VL8); experiment: Cis-inhibition assay, 3H-MPP+ uptake in hMATE2-CHO-K1 cells; assay type: cell-based; conditions: pinocembrin, pH 8.5
T2 construct: host or cells: CHO-K1
Method: as §1, §2

hOAT3 [2] = target: T3, hOAT3 (Homo sapiens, UniProt Q8TCC7); experiment: Cis-inhibition assay, 3H-estrone sulfate uptake in hOAT3-MDCK cells; assay type: cell-based; conditions: 10 µM pinocembrin, compared with vehicle control
T3 construct: host or cells: MDCK
T3 sequence (Q8TCC7 1-542): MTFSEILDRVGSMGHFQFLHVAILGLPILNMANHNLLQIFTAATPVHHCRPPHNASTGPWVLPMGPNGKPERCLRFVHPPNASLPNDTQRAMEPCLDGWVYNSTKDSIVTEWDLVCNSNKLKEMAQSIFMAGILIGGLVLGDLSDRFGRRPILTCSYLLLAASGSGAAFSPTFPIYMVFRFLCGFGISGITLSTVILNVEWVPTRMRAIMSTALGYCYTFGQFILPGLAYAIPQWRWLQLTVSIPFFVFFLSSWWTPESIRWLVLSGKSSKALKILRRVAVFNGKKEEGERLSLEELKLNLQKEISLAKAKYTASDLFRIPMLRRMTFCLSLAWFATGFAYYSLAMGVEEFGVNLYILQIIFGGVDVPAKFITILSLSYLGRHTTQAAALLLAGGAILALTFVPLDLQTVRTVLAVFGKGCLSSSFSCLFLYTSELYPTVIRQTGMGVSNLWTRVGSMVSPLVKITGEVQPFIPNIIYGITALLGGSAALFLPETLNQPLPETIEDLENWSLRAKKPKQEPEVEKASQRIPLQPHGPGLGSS
Method: as §1, §2

hOAT3 [3] = target: T3, hOAT3; experiment: hOAT3-mediated 6-CF uptake in hOAT3-MDCK cells (inhibitory potency and kinetics); assay type: cell-based
Method: To determine the inhibitory potency of pinocembrin on the hOAT1 and hOAT3 function, the IC50 of pinocembrin on the hOAT1- and hOAT3-mediated uptake of 6-carboxyfluorescein (6-CF), a fluorescent substrate of hOAT1 and hOAT3, was determined. […] Next, the inhibitory mechanism of pinocembrin was determined using a kinetic study.
The hOAT1-MDCK and hOAT3-MDCK cell monolayers were incubated at 37 °C with an uptake buffer containing 6-CF (10 µM), a fluorescent substrate of hOAT1 and hOAT3 [12], and pinocembrin (0–50 µM) for 10 min. Uptake was terminated by removing the uptake solution and washing four times with a cold buffer. The cell monolayers were lysed with 0.4 N NaOH for 30 min. The samples were transferred to 96-black well plates to measure the fluorescence intensity using a fluorescent plate reader (EnVision XCite 2105 Multimode Plate Reader, Packard BioScience, Wellesley, MA, USA) at excitation and emission wavelengths of 490 and 510, respectively. The IC50 of pinocembrin on hOAT1- and hOAT3-mediated 6-CF uptake was calculated in GraphPad Prism using sigmoidal concentration–response analysis using the equation Y = 100/(IC50/X)^HillSlope (X is the concentration, while Y is the normalized response). In addition, the estimated inhibitory constant (Ki) was calculated using the Cheng–Prusoff equation.
The hOAT1-MDCK and hOAT3-MDCK cell monolayers were incubated with 6-CF at increasing concentrations (0 to 100 µM) and in the absence or presence of 5 µM pinocembrin for 10 min. The kinetic parameters of 6-CF transport by hOAT1 and hOAT3 in the presence of pinocembrin were determined using nonlinear regression analysis to fit the Michaelis–Menten kinetic equation: V=Vmax[S]/Km+[S] where V is the rate of 6-CF transport, Vmax is the maximum rate of 6-CF transport, Km is the 6-CF concentration that results in half the maximum transport (Michaelis–Menten constant), and [S] is the concentration of 6-CF in the transport reaction.

hOCT1 = target: T4, hOCT1 (Homo sapiens, UniProt O15245); experiment: Cis-inhibition assay, 3H-MPP+ uptake in hOCT1-CHO-K1 cells; assay type: cell-based; conditions: pinocembrin
T4 construct: host or cells: CHO-K1
Method: as §1, §2

[4] = 80 mg intravenous injection, human subjects

T2 sequence (Q86VL8 whole entry): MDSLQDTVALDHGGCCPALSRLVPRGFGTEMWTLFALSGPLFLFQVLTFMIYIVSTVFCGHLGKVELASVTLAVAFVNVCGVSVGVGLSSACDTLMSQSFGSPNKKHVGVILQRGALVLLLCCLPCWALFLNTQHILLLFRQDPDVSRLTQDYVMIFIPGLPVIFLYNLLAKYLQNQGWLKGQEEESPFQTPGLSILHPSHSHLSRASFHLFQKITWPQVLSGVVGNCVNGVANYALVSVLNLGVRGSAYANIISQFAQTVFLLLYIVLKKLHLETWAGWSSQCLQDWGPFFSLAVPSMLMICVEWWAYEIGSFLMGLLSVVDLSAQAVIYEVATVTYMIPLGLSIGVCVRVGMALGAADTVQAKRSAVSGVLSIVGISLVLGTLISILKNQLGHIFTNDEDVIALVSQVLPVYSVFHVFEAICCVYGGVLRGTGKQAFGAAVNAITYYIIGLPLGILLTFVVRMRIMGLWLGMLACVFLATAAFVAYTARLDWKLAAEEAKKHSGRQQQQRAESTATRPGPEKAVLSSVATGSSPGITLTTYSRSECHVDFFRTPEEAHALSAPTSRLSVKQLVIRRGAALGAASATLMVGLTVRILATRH
T4 sequence (O15245 whole entry): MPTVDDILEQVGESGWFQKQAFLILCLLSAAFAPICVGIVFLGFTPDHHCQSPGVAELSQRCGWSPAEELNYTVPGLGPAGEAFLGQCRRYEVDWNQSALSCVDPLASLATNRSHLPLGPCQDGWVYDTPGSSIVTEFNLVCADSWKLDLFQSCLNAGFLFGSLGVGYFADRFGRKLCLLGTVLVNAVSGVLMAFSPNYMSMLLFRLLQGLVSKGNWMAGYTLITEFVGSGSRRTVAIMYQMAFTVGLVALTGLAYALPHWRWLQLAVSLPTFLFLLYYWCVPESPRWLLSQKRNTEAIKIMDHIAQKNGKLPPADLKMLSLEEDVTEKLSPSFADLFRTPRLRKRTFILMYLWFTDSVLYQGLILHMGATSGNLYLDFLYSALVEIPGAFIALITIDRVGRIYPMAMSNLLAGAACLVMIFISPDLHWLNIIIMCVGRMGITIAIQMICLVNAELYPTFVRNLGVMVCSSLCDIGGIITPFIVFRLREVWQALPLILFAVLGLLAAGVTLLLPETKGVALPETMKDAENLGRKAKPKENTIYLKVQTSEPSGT
T1 sequence (Q96FL8 whole entry): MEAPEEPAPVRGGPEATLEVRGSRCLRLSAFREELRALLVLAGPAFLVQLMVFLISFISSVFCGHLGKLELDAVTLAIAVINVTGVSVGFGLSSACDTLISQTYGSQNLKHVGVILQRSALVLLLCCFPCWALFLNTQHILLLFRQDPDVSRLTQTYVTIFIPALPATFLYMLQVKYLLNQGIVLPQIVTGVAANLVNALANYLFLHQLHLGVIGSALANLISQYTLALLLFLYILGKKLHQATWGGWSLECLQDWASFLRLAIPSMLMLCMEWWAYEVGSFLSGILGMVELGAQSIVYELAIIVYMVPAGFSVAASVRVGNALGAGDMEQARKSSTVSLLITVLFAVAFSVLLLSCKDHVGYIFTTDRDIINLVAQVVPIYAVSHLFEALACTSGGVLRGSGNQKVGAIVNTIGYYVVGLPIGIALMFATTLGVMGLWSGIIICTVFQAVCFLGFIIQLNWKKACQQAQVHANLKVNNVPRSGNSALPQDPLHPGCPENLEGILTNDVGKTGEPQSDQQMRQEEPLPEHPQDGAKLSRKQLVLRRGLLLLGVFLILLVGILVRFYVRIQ

## O=C1C[C@@H](c2ccccc2)Oc2cc(O)cc(O)c21 [pinocembrin]
hMATE1
  hMATE1-mediated uptake of 3H-MPP+: did not alter
[1]; 40 mg intravenous injection
  maximal plasma concentration: 0.6 µg/mL and 2.3 µM
[1]; 80 mg intravenous injection
  maximal plasma concentration: 4.7 µM
[1]; [4]
  T1/2: 55 min
  maximal plasma concentration (Cmax): 1220 ng/mL
[1]; phase I clinical trials
  observed plasma concentration: 3 to 10 µM
BCRP
  effect on BCRP: weakly inhibited
CYP3A4
  effect on the activity of CYP3A4: inhibits the activities
CYP3A4; concentrations of 1–5 µM
  effect on the activity of CYP3A4: shows an inhibitory effect
OATP2B1
  IC50: 8900 nM
hMATE2
  hMATE2-mediated uptake of 3H-MPP+: did not alter
hOAT3 [2]
  3H-estrone sulfate cellular accumulation: significantly decreased
hOAT3 [3]; 5 μM pinocembrin, 6-CF up to 100 μM, hOAT3-MDCK cells
  Vmax of hOAT3-mediated 6-CF uptake, With Pinocembrin: 11.32 ± 2.33 nmol/min/cm^2
hOAT3 [3]; hOAT3-MDCK cells, 6-CF 10 µM, mean ± S.D., three experiments
  IC50: 2380 ± 980 nM
hOAT3 [3]; hOAT3-MDCK cells, estimated with the Cheng–Prusoff equation
  Ki: 1300 ± 240 nM
hOAT3 [3]; kinetic study, 5 μM pinocembrin: Km increased, Vmax unchanged
  inhibitory mechanism on hOAT3 transport function: competitively
hOCT1
  hOCT1-mediated uptake of 3H-MPP+: did not alter
